Publication PMC7826463, “Pamiparib dose escalation in Chinese patients with non‐mucinous high‐grade ovarian cancer or advanced triple‐negative breast cancer” (Cancer Medicine, 2020)
“And” between values parts separate entries of the source, which are not always exact repeats. Identical values can stand only once. “Also recorded” adds a separate entry of the source.

Tested on: Chinese patients with advanced HGOC or TNBC
Experiment: Safety/tolerability (adverse events per NCI-CTCAE v4.03, DLTs) in phase 1 dose escalation (NCT03333915)
Format: in vivo
Description: This phase 1/2, open‐label, multicenter study assessed the safety and antitumor activity of pamiparib in Chinese patients ≥18 years with advanced solid tumors whose disease progressed despite standard therapy or for which there is no standard therapy. Phase 1 was a dose‐escalation study, with a 3 + 3 design, that evaluated the single‐agent safety/tolerability, pharmacokinetic (PK) profile, and preliminary antitumor activity of pamiparib and confirmed the RP2D in Chinese patients (Figure 1). The phase 2 dose‐expansion component of this study is investigating the single‐agent antitumor activity and safety/tolerability of pamiparib.
In phase 1, patients received pamiparib at 20, 40, and 60 mg BID dose levels. The starting dose for pamiparib (20 mg BID) was selected as one‐third of the RP2D (60 mg BID) and one‐fourth of the MTD (80 mg BID), which were determined in the FIH study. […] Safety evaluations, including dose‐limiting toxicities (DLTs), of ≥3 patients completing one cycle of treatment at a specific dose level were required before proceeding to the next cohort with a higher dose level. Patients could continue the study treatment in 21‐day cycles and subsequent cycles at the discretion of the investigator.
The primary objective in phase 1 was to evaluate the safety and tolerability of pamiparib. Safety and tolerability endpoint assessments were based on monitoring of treatment‐emergent adverse events (AEs), in addition to vital signs, electrocardiograms, physical examinations, and clinical laboratory results. The incidence and severity of all AEs and incidence of serious AEs were assessed according to the National Cancer Institute‐Common Terminology Criteria for Adverse Events v4.03.
Approximately 14 to 18 evaluable patients were expected to enroll in the phase 1 part of the study. The safety population included all patients who received ≥1 dose of pamiparib. The PK population included all patients for whom valid pamiparib PK parameters could be estimated. Antitumor activity per RECIST v1.1 was assessed in all evaluable patients. Patients were considered response evaluable if they had measurable disease at baseline per RECIST v1.1 and had ≥1 post‐baseline tumor assessment, unless treatment had been discontinued due to clinical progression or death prior to tumor assessment. The population evaluable for CA‐125 response included patients in the safety population with baseline CA‐125 ≥2 x upper limit of normal.

C[C@]12CCCN1CC1=NNC(=O)c3cc(F)cc4[nH]c2c1c34 [pamiparib, Pamiparib]
Treatment-related adverse event Decreased white blood cell count, Grade ≥3 (60 mg BID (n = 7)): 2 (28.6) n (%) | Treatment-related adverse event Diarrhea, All Grades (60 mg BID (n = 7)): 2 (28.6) n (%) | Treatment-related adverse event Diarrhea, Grade ≥3 (60 mg BID (n = 7)): 0 n (%) | Treatment-related adverse event Increased GGT, All Grades (60 mg BID (n = 7)): 1 (14.3) n (%) | Treatment-related adverse event Increased GGT, Grade ≥3 (60 mg BID (n = 7)): 0 n (%) | Treatment-related adverse event Increased conjugated bilirubin, All Grades (60 mg BID (n = 7)): 2 (28.6) n (%) | Treatment-related adverse event Increased conjugated bilirubin, Grade ≥3 (60 mg BID (n = 7)): 0 n (%) | Treatment-related adverse event Nausea, All Grades (60 mg BID (n = 7)): 5 (71.4) n (%) | Treatment-related adverse event Nausea, Grade ≥3 (60 mg BID (n = 7)): 1 (14.3) n (%) | Treatment-related adverse event Prolonged electrocardiogram QT, All Grades (60 mg BID (n = 7)): 2 (28.6) n (%) | Treatment-related adverse event Prolonged electrocardiogram QT, Grade ≥3 (60 mg BID (n = 7)): 0 n (%) | Treatment-related adverse event Somnolence, All Grades (60 mg BID (n = 7)): 1 (14.3) n (%) | Treatment-related adverse event Somnolence, Grade ≥3 (60 mg BID (n = 7)): 0 n (%) | Treatment-related adverse event Tachycardia, All Grades (60 mg BID (n = 7)): 2 (28.6) n (%) | Treatment-related adverse event Tachycardia, Grade ≥3 (60 mg BID (n = 7)): 0 n (%) | Treatment-related adverse event Vomiting, All Grades (60 mg BID (n = 7)): 2 (28.6) n (%) | Treatment-related adverse event Vomiting, Grade ≥3 (60 mg BID (n = 7)): 1 (14.3) n (%) | Discontinued treatment: Adverse event (60 mg BID (n=7), count (percent)): 2 (28.6) | Tolerability (20 to 60 mg BID, Chinese patients): generally well tolerated | Grade 3 TRAE: anemia (N = 15): 2 n | Grade 4 or 5 TRAEs (N = 15): No grade 4 or 5 TRAEs | Grade ≥4 AEs (N = 15): no grade ≥4 AEs | Patients who experienced a serious AE (N = 15): three | Patients who experienced ≥1 AE considered related to pamiparib (N = 15): 100% | Serious AE: abdominal infection (N = 15): 1 n | Serious AE: intestinal obstruction (N = 15): 1 n | Serious AE: pleural effusion (N = 15): 1 n | Serious AEs considered related to study treatment (N = 15): none and no DLTs or serious AEs considered related to pamiparib | Patients who experienced grade ≥3 AEs (N = 15 (10 patients), all causality): 67% | Patients who experienced ≥1 TRAE of grade 3 severity (N = 15 (six patients)): 40% | AE of any grade: asthenia (N = 15, all causality): 80% | AE of any grade: decreased appetite (N = 15, all causality): 60% | AE of any grade: decreased white blood cell count (N = 15, all causality): 67% | AE of any grade: nausea (N = 15, all causality): 80% | Grade ≥3 AE: anemia (N = 15, all causality): 27% | Grade ≥3 AE: decreased hemoglobin (N = 15, all causality): 20% | Patients who experienced ≥1 AE of any grade (N = 15, all causality): 15 patients | Treatment-related AE: asthenia (N = 15, any grade): 80% | Treatment-related AE: nausea (N = 15, any grade): 80% | Recommended phase 2 dose (RP2D) confirmed in Chinese patients (PO): 60 mg BID | Treatment-related adverse event Asthenia, All Grades (Total (N = 15)): 12 n (%) and 12 (80.0) n (%) | Treatment-related adverse event Asthenia, Grade ≥3 (Total (N = 15)): 0 n (%) | Treatment-related adverse event Decreased appetite, All Grades (Total (N = 15)): 9 (60.0) n (%) | Treatment-related adverse event Decreased appetite, Grade ≥3 (Total (N = 15)): 0 n (%) | Treatment-related adverse event Decreased hemoglobin, All Grades (Total (N = 15)): 6 (40.0) n (%) | Treatment-related adverse event Decreased hemoglobin, Grade ≥3 (Total (N = 15)): 3 n (%) and 3 (20) n (%) | Treatment-related adverse event Decreased neutrophil count, All Grades (Total (N = 15)): 8 (53.3) n (%) | Treatment-related adverse event Decreased neutrophil count, Grade ≥3 (Total (N = 15)): 2 n (%) and 2 (13) n (%) | Treatment-related adverse event Decreased platelet count, All Grades (Total (N = 15)): 3 (20.0) n (%) | Treatment-related adverse event Decreased platelet count, Grade ≥3 (Total (N = 15)): 1 n (%) and 1 (7) n (%) | Treatment-related adverse event Decreased white blood cell count, All Grades (Total (N = 15)): 10 (66.7) n (%) | Treatment-related adverse event Decreased white blood cell count, Grade ≥3 (Total (N = 15)): 2 n (%) and 2 (13) n (%) | Treatment-related adverse event Diarrhea, All Grades (Total (N = 15)): 3 (20.0) n (%) | Treatment-related adverse event Diarrhea, Grade ≥3 (Total (N = 15)): 0 n (%) | Treatment-related adverse event Increased GGT, All Grades (Total (N = 15)): 3 (20.0) n (%) | Treatment-related adverse event Increased GGT, Grade ≥3 (Total (N = 15)): 0 n (%) | Treatment-related adverse event Increased conjugated bilirubin, All Grades (Total (N = 15)): 4 (26.7) n (%) | Treatment-related adverse event Increased conjugated bilirubin, Grade ≥3 (Total (N = 15)): 0 n (%) | Treatment-related adverse event Nausea, All Grades (Total (N = 15)): 12 n (%) and 12 (80.0) n (%) | Treatment-related adverse event Nausea, Grade ≥3 (Total (N = 15)): 1 n (%) and 1 (7) n (%) | Treatment-related adverse event Prolonged electrocardiogram QT, All Grades (Total (N = 15)): 4 (26.7) n (%) | Treatment-related adverse event Prolonged electrocardiogram QT, Grade ≥3 (Total (N = 15)): 1 n (%) and 1 (7) n (%) | Treatment-related adverse event Somnolence, All Grades (Total (N = 15)): 3 (20.0) n (%) | Treatment-related adverse event Somnolence, Grade ≥3 (Total (N = 15)): 0 n (%) | Treatment-related adverse event Tachycardia, All Grades (Total (N = 15)): 3 (20.0) n (%) | Treatment-related adverse event Tachycardia, Grade ≥3 (Total (N = 15)): 0 n (%) | Treatment-related adverse event Vomiting, All Grades (Total (N = 15)): 4 (26.7) n (%) | Treatment-related adverse event Vomiting, Grade ≥3 (Total (N = 15)): 1 n (%) and 1 (7) n (%) | Dose-limiting toxicities (DLTs) (pamiparib dose range 20-60 mg BID, 23-day initial cycle): No dose‐limiting toxicities; also recorded: no DLTs
